Data reported in patent US8134015B2, “Compound inhibiting in vivo phosphorous transport and medicine containing the same” (Kyowa Hakko Kirin Co., Ltd., priority 2003, dated 2012).

Tests used:
[1] = biological target: T1, human NaPi-2a (Homo sapiens, UniProt Q06495); assay: Sodium-dependent phosphate uptake of Xenopus oocytes which expressed NaPi-2a (32P); type: cell-based; conditions: phosphate uptake, Xenopus oocytes expressing human NaPi-2a; five concentration levels
T1 construct: expressed in transfected cells
T1 sequence (Q06495 1-639): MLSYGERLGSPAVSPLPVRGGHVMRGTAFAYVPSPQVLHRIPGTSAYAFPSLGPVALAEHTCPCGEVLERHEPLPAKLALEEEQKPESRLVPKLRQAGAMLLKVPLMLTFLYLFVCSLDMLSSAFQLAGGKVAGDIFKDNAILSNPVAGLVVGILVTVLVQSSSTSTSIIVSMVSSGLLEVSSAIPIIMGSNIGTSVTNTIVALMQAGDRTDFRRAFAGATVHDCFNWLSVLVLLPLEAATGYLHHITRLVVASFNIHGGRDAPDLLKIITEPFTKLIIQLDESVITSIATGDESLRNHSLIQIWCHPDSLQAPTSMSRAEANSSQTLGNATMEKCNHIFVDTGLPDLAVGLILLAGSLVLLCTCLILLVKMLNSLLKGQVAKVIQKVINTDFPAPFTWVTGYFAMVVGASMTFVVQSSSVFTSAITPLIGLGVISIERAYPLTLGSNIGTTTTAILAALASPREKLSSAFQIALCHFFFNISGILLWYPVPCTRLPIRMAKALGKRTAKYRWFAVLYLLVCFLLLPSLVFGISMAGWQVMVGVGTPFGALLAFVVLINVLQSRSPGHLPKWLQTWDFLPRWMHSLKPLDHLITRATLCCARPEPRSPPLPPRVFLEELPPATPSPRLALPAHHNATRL
Text: Experiment of Sodium-Dependent Phosphate Uptake of Xenopus oocytes which Expressed NaPi-2a
In the test, a group with the addition of choline chloride (Choline Cl) was used as a negative control for nonspecific uptake, and PFA (phosphonoformic acid) was used as a positive control for phosphate transport inhibition.

[2] = biological target: T2, rat NaPi-2b (Rattus norvegicus, UniProt Q9JJ09); assay: Sodium-dependent phosphate uptake of Xenopus oocytes which expressed NaPi-2b (32P); type: cell-based; conditions: Xenopus oocytes expressing rat NaPi-2b, 32P radioactive phosphorus; read-out: IC50 (phosphate uptake inhibitory activity)
T2 construct: expressed in transfected cells; host or cells: Xenopus oocytes injected with cRNA
T2 sequence (Q9JJ09 1-695): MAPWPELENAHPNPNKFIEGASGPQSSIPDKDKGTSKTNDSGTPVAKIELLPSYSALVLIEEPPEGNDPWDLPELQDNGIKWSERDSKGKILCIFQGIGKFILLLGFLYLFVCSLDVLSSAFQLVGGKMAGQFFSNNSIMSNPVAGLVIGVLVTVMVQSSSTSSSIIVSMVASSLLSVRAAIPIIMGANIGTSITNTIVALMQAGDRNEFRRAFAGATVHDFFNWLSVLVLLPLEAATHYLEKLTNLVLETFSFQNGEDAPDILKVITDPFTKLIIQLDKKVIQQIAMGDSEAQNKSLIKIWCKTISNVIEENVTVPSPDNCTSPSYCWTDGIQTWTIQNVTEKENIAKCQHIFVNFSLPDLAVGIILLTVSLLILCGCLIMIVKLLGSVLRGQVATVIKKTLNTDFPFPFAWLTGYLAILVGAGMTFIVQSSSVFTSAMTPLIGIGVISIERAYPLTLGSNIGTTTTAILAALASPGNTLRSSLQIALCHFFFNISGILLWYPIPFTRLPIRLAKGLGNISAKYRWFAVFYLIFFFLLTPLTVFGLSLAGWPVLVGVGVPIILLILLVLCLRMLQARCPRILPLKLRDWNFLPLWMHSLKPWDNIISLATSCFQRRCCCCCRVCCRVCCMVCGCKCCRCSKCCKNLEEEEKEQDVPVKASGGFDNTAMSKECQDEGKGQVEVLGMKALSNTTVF
Summary of the method: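 Percent inhibition at 300 μM and 100 μM comes from the same inhibition curve of 32P uptake. Assay used oocytes expressing rat NaPi-2b after 2 days of culture.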

Structure (SMILES) | IC50 [1] | IC50 [2]
Cc1csc(NC(=O)c2cccc(CN3CCC4(CC3)OCCO4)c2)c1C(=O)N/N=C/c1ccc(F)cc1 [Compound 834, 3-(1,4-Dioxa-8-aza-spiro[4,5]dec-8-ylmethyl]-N-[3-(4-fluoro-benzylidene-hydrazinocarbonyl)-4-methyl-thiophen-2-yl]-benzamide] | 52.1 µM | 19 µM
CCN(CC)CCN(C)Cc1cccc(C(=O)Nc2ccc(N3CCCCC3)cc2C(=O)N/N=C/c2ccc(C)c(C)c2)c1 [Compound 858, 3-{[(2-Diethylamino-ethyl)-methyl-amino]-methyl}-N-[2-(3,4-dimethyl-benzylidene-hydrazinocarbonyl)-4-piperidin-1-ylphenyl]-benzamide] | < 1 µM | 0.46 µM
CCN(CC)CCN(C)Cc1cccc(C(=O)Nc2ccc(N3CCCCC3)cc2C(=O)N/N=C/c2ccc(Cl)c(C(F)(F)F)c2)c1 [Compound 862, N-[2-(4-Chloro-3-trifluoromethyl-benzylidene-hydrazinocarbonyl)-4-piperidin-1-yl-phenyl]-3-{[(2-diethylamino-ethyl)-methyl-amino]-methyl}-benzamide] | 1.65 µM | 0.35 µM
Cc1ccc(/C=N/NC(=O)c2cc(N3CCCCC3)ccc2NC(=O)c2cccc(CSCCC(=O)O)c2)cc1C [Compound 886, 3-{3-[2-(3,4-Dimethyl-benzylidene-hydrazinocarbonyl)-4-piperidin-1-yl-phenylcarbamoyl]-benzylsulfanyl}-propionic acid] | 2.93 µM | 0.81 µM
COc1ccc(/C=N/NC(=O)c2c(C)csc2NC(=O)c2cccc(CN3CCN(c4ncccn4)CC3)c2)cc1 [Compound 831, N-[3-(4-Methoxy-benzylidene-hydrazinocarbonyl)-4-methyl-thiophen-2-yl]-3-(4-pyrimidin-2-yl-piperazin-1-ylmethyl)-benzamide] | 28.8 µM | 3.88 µM
O=C(Nc1sc2c(c1C(=O)N/N=C/c1ccc(F)cc1)CCC2)c1cccc(CN2CCC(CO)CC2)c1 [Compound 818, N-[3-(4-Fluoro-benzylidene-hydrazinocarbonyl)-5,6-dihydro-4H-cyclopenta[b]thiophen-2-yl]-3-(4-hydroxymethyl-piperidin-1-ylmethyl)-benzamide] | 31.4 µM | 7.38 µM
Cc1ccc(/C=N/NC(=O)c2cc(N3CCCCC3)ccc2NC(=O)c2cccc(CSCC(O)CO)c2)cc1 (stereo not shown) [Compound 900, 3-(2,3-Dihydroxy-propylsulfanylmethyl)-N-[2-(4-methyl-benzylidene-hydrazinocarbonyl)-4-piperidin-1-yl-phenyl]-benzamide] | 2.53 µM | < 1 µM
COc1ccc(/C=N/NC(=O)c2cc(N3CCCCC3)ccc2NC(=O)c2cccc(CSCCC(=O)O)c2)cc1 [Compound 890, 3-{3-[2-(4-Methoxy-benzylidene-hydrazinocarbonyl)-4-piperidin-1-yl-phenylcarbamoyl]-benzylsulfanyl}-propionic acid] | 1.33 µM | 3.91 µM
Cc1ccc(/C=N/NC(=O)c2c(NC(=O)c3cccc(CN4CCC(O)CC4)c3)sc3c2CCCC3)cc1 [Compound 634, 3-(4-Hydroxy-piperidin-1-ylmethyl)-N-[3-(4-methyl-benzylidene-hydrazinocarbonyl)-4,5,6,7-tetrahydro-benzo[b]thiophen-2-yl]-benzamide] | 16.9 µM | 1.74 µM
CC(O)CN(Cc1cccc(C(=O)Nc2sc3c(c2C(=O)N/N=C/c2ccc(F)cc2)CCC3)c1)CC(C)O (stereo not shown) [Compound 807, 3-{[Bis-(2-hydroxy-propyl)-amino]-methyl}-N-[3-(4-fluoro-benzylidene-hydrazinocarbonyl)-5,6-dihydro-4H-cyclopenta[b]thiophen-2-yl]-benzamide] | 9.07 µM | < 1 µM
Cc1ccc(/C=N/NC(=O)c2c(NC(=O)c3cccc(CN4CCC(CO)CC4)c3)sc3c2CCCC3)cc1C [Compound 639, N-[3-(3,4-Dimethyl-benzylidene-hydrazinocarbonyl)-4,5,6,7-tetrahydro-benzo[b]thiophen-2-yl]-3-(4-hydroxymethyl-piperidin-1-ylmethyl)-benzamide] | 11.1 µM | 1.84 µM
CCN(CC)CCN(C)Cc1cccc(C(=O)Nc2ccc(N3CCCCC3)cc2C(=O)N/N=C/c2cccc(F)c2)c1 [Compound 861, 3-{[(2-Diethylamino-ethyl)-methyl-amino]-methyl}-N-[2-(3-fluoro-benzylidene-hydrazinocarbonyl)-4-piperidin-1-yl-phenyl]-benzamide] | < 1 µM | 0.52 µM
CC(O)CN(Cc1cccc(C(=O)Nc2sc3c(c2C(=O)N/N=C/c2ccc(F)cc2)CCCC3)c1)CC(C)O (stereo not shown) [Compound 629, 3-{[Bis-(2-hydroxy-propyl)-amino]-methyl}-N-[3-(4-fluoro-benzylidene-hydrazinocarbonyl)-4,5,6,7-tetrahydro-benzo[b]thiophen-2-yl]-benzamide] | 12.9 µM | 3.01 µM
Cc1ccc(/C=N/NC(=O)c2c(NC(=O)c3cccc(CN(CC(C)O)CC(C)O)c3)sc3c2CCCC3)cc1 (stereo not shown) [Compound 628, 3-{[Bis-(2-hydroxy-propyl)-amino]-methyl}-N-[3-(4-methyl-benzylidene-hydrazinocarbonyl)-4,5,6,7-tetrahydro-benzo-[b]thiophen-2-yl]-benzamide] | 3.59 µM | 1.29 µM
Cc1ccc(/C=N/NC(=O)c2cc(N3CCCCC3)ccc2NC(=O)c2cccc(CN3CCc4nc5ncccc5cc4C3)c2)cc1 [Compound 894, 3-(7,8-Dihydro-5H-1,6,9-triaza-anthracen-6-ylmethyl)-N-[2-(4-methyl-benzylidene-hydrazinocarbonyl)-4-piperidin-1-yl-phenyl]-benzamide] | 3.61 µM | 0.5 µM
Cc1ccc(/C=N/NC(=O)c2cc(F)ccc2NC(=O)c2cccc(CN(CC(C)O)CC(C)O)c2)cc1 (stereo not shown) [Compound 989, 3-{[Bis-(2-hydroxy-propyl)-amino]-methyl}-N-[4-fluoro-2-(4-methyl-benzylidene-hydrazinocarbonyl)-phenyl]-benzamide] | 7.84 µM | < 3 µM
Cc1ccc(/C=N/NC(=O)c2cc(N3CCCCC3)ccc2NC(=O)c2cccc(CN3CCc4nc5ncccc5cc4C3)c2)cc1C [Compound 893, 3-(7,8-Dihydro-5H-1,6,9-triaza-anthracen-6-ylmethyl)-N-[2-(3,4-dimethyl-benzylidene-hydrazinocarbonyl)-4-piperidin-1-yl-phenyl]-benzamide] | 5.11 µM | < 0.3 µM
Cc1ccc(/C=N/NC(=O)c2cc(F)ccc2NC(=O)c2cccc(CN(CC(C)O)CC(C)O)c2)cc1C (stereo not shown) [Compound 985, 3-{[Bis-(2-hydroxy-propyl)-amino]-methyl}-N-[2-(3,4-dimethyl-benzylidene-hydrazinocarbonyl)-4-fluoro-phenyl]-benzamide] | < 3 µM | < 3 µM
Cc1csc(NC(=O)c2cccc(CN(CCO)CCO)c2)c1C(=O)N/N=C/c1ccc(F)cc1 [Compound 788, 3-{[Bis-(2-hydroxy-ethyl)-amino]-methyl}-N-[3-(4-fluoro-benzylidene-hydrazinocarbonyl)-4-methyl-thiophen-2-yl]-benzamide] | 6.64 µM | 2.04 µM
O=C(Nc1sc2c(c1C(=O)N/N=C/c1cccc(F)c1)CCCC2)c1cccc(CN2CCC(O)CC2)c1 [Compound 636, N-[3-(3-Fluoro-benzylidene-hydrazinocarbonyl)-4,5,6,7-tetrahydro-benzo[b]thiophen-2-yl]-3-(4-hydroxy-piperidin-1-ylmethyl)-benzamide] | 5.3 µM | 3.89 µM
